Measured values published in patent US20250255851A1, “SOLID FORMS OF AN ALDOSTERONE SYNTHASE INHIBITOR” (Boehringer Ingelheim International GmbH, priority 2024, published 2025).
Values belong to the molecule of their own block, whether it stands above or below them.

Key:
Type in all cases: physicochemical
[1] = Dynamic Vapor Sorption (DVS) water sorption isotherm
Description: Water sorption isotherms are determined using a dynamic vapor sorption system (Advantage 1, DVS, London, UKDVS Intrinsic Plus, Surface Measurement Systems, Allentown, PA). Approximately 5-10 mg of solid is weighed into a tared aluminum pan. […] Equilibration criteria are dm/dt of 0.002% over 5 minutes or 360 minutes at a specified % RH. Each sample is equilibrated at each RH step for at least 60 min, and equilibrium is assumed if weight increase is less than 0.1% within one minute, and the maximum duration on each RH is 6 hours. Therefore, each sample is held at a given RH for 1 to 6 hours depending on how fast the equilibrium is reached. Exemplary DVS of the compounds of the invention are found in the Figures.

[2] = Stability of crystalline form (resistance to change in crystalline form)
From the text: However, these solvate of Compound 1 are generally not as stable (for example, resistant to change in crystalline form) as Form I and Form X. This lack of stability generally requires special processing and storage conditions for the solvates, thus making them less desirable as a component of a solid form of a pharmaceutical preparation. […] Alternatively, processes for preparing Compound 1 may involve formation of a crystalline solvate form of Compound 1 as an intermediate step prior to final preparation of Form I or Form X. For example, the purification and/or isolation of the crystalline solvates of Compound 1 may be used to remove impurities prior to conversion of the crystalline solvates to Form I and/or Form X using methods described herein.
Despite the lower stability of the other crystalline forms of Compound 1 (Forms II, Ill, IV, VI, VII and IX), the other crystalline forms are still useful as intermediates to prepare Form I and/or Form X as described herein.

[3] = Storage stability of solid form samples at controlled temperature and relative humidity; details: at least 9 months at 25° and 60% and at least 6 months at 40° and 75% relative humidity; both storage conditions
Description: Samples of Form I were maintained for at least 9 months at 25°, and 60% and at least 6 months at 40° and 75% relative humidity.
Samples of Form X were maintained for at least 9 months at 25°, and 60% and at least 6 months at 40° and 75% relative humidity.

[4] = Biopharmaceutics Classification System (BCS) classification

water uptake (DVS) ([1]; at 90% Rh during the second cycle, 25° C.): about 0.07%
SMILES: C[C@]1(CO)Cc2ncn(-c3ccc(C#N)c(Cl)c3)c2C(=O)O1 [Form X, 2-chloro-4-[(6R)-6-(hydroxymethyl)-6-methyl-4-oxo-3H,4H,6H,7H-pyrano[3,4-d]imidazol-3-yl]benzonitrile]

conversion of crystalline form ([2]; at elevated temperature and/or under high humidity): convert to Form I and/or Form X
SMILES: C[C@]1(CO)Cc2ncn(-c3ccc(C#N)c(Cl)c3)c2C(=O)O1 [Form IV, 2-chloro-4-[(6R)-6-(hydroxymethyl)-6-methyl-4-oxo-3H,4H,6H,7H-pyrano[3,4-d]imidazol-3-yl]benzonitrile]

water uptake (DVS) ([1]; at 95% Rh during the second cycle, 25° C.): about 0.4 % (wt.)
hygroscopicity (from DVS plot) ([1]; second DVS cycle): non-hygroscopic
impurity levels after storage [3]: no increase in impurity levels
particle size distribution after storage [3]: no change in particle sized distribution
solid form after storage [3]: no change in solid form
water content after storage [3]: no increase in water content
BCS class [4]: class 1
relative stability of crystalline form (resistance to change in form) ([2]; compared with Form II, Form III and the crystalline solvate forms): more stable
SMILES: C[C@]1(CO)Cc2ncn(-c3ccc(C#N)c(Cl)c3)c2C(=O)O1 [Form I, 2-chloro-4-[(6R)-6-(hydroxymethyl)-6-methyl-4-oxo-3H,4H,6H,7H-pyrano[3,4-d]imidazol-3-yl]benzonitrile]

SMILES: C[C@]1(CO)Cc2ncn(-c3ccc(C#N)c(Cl)c3)c2C(=O)O1 [Form VI, 2-chloro-4-[(6R)-6-(hydroxymethyl)-6-methyl-4-oxo-3H,4H,6H,7H-pyrano[3,4-d]imidazol-3-yl]benzonitrile]
solid form transformation during DVS (solvent replaced by water) ([1]; DVS cycles, 25° C.): transformed to a mixture of Form I and Form III
mass stability over humidity range (DVS profile) ([1]; sharp descending step when 80% RH was reached): stable over a wide humidity range from RH=0 to the 80%
